Laboratory results as given in patent US20170334899A1, “AMINO-SUBSTITUTED ISOTHIAZOLES” (Bayer Pharma Aktiengesellschaft, priority 2014, published 2017).

Experiments:
[1] = target: T1, catalytic domain of human Bub1 (amino acids 704-1085) (Homo sapiens, UniProt O43683); assay: Bub1 kinase assay (TR-FRET); type: biochemical; details: 10 μM ATP, avg, read-out: Bub1 avg (IC50 [mol/l])
T1 construct: catalytic domain of human Bub1 (amino acids 704-1085); His6 (N); made in house; host or cells: insect cells (Hi5)
T1 sequence (O43683 704-1085): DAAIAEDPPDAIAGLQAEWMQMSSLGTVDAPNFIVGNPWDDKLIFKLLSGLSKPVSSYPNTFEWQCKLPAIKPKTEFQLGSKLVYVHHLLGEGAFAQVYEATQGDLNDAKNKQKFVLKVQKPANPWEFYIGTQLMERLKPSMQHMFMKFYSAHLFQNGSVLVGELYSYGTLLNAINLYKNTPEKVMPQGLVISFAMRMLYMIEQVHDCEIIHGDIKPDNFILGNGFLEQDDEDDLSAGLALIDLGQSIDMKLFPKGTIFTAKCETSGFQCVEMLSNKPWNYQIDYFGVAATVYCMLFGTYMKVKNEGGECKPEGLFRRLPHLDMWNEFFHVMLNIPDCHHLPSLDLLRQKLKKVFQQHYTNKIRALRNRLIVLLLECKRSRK
Excerpt: Bub1-inhibitory activity of compounds of the present invention was quantified employing the Bub1 TR-FRET assay as described in the following paragraphs.
N-terminally His6-tagged recombinant catalytic domain of human Bub1 (amino acids 704-1085), expressed in insect cells (Hi5) and purified by Ni-NTA affinity chromatography and subsequent size exclusion chromatography, was used as enzyme. As substrate for the kinase reaction the biotinylated peptide biotin-Ahx-VLLPKKSFAEPG (C-terminus in amid form) was used which can be purchased e.g. form the company Biosyntan (Berlin, Germany).
For the assay 50 nl of a 100fold concentrated solution of the test compound in DMSO was pipetted into a black low volume 384well microtiter plate (Greiner Bio-One, Frickenhausen, Germany), 2 μl of a solution of Bub1 in aqueous assay buffer [50 mM Tris/HCl pH 7.5, 10 mM magnesium chloride (MgCl2), 200 mM potassium chloride (KCl), 1.0 mM dithiothreitol (DTT), 0.1 mM sodium ortho-vanadate, 1% (v/v) glycerol, 0.01% (w/v) bovine serum albumine (BSA), 0.005% (v/v) Trition X-100 (Sigma), 1× Complete EDTA-free protease inhibitor mixture (Roche)] were added and the mixture was incubated for 15 min at 22° C. to allow pre-binding of the test compounds to the enzyme before the start of the kinase reaction. Then the kinase reaction was started by the addition of 3 μl of a solution of adenosine-tri-phosphate (ATP, 16.7 μM=>final conc. in the 5 μl assay volume is 10 μM) and substrate (1.67 μM=>final conc. in the 5 μl assay volume is 1 μM) in assay buffer and the resulting mixture was incubated for a reaction time of 60 min at 22° C. The concentration of Bub1 was adjusted depending of the activity of the enzyme lot and was chosen appropriate to have the assay in the linear range, typical concentrations were in the range of 200 ng/ml. The reaction was stopped by the addition of 5 μl of a solution of TR-FRET detection reagents (0.2 μM streptavidine-XL665 [Cisbio Bioassays, Codolet, France] and 1 nM anti-phosho-Serine antibody [Merck Millipore, cat. #35-001] and 0.4 nM LANCE EU-W1024 labeled anti-mouse IgG antibody [Perkin-Elmer, product no. AD0077, as an alternative a Terbium-cryptate-labeled anti-mouse IgG antibody from Cisbio Bioassays can be used]) in an aqueous EDTA-solution (50 mM EDTA, 0.2% (w/v) bovine serum albumin in 100 mM HEPES pH 7.5).
(§1) The resulting mixture was incubated 1 h at 22° C. to allow the formation of complex between the phosphorylated biotinylated peptide and the detection reagents. Subsequently the amount of phosphorylated substrate was evaluated by measurement of the resonance energy transfer from the Eu-chelate to the streptavidine-XL. Therefore, the fluorescence emissions at 620 nm and 665 nm after excitation at 350 nm was measured in a TR-FRET reader, e.g. a Rubystar or Pherastar (both from BMG Labtechnologies, Offenburg, Germany) or a Viewlux (Perkin-Elmer). The ratio of the emissions at 665 nm and at […] was taken as the measure for the amount of phosphorylated substrate. The data were normalised (enzyme reaction without inhibitor=0% inhibition, all other assay components but no enzyme=100% inhibition).

CDK2/CycE = target: T2, CDK2/CycE (Homo sapiens, UniProt P24941); assay: CDK2/CycE kinase assay (TR-FRET); type: biochemical; details: avg, read-out: CDK2 avg (IC50 [mol/l])
T2 construct: GST; purchased ProQinase GmbH (Freiburg, Germany); host or cells: insect cells (Sf9)
Excerpt: CDK2/CycE -inhibitory activity of compounds of the present invention was quantified employing the CDK2/CycE TR-FRET assay as described in the following paragraphs.
Recombinant fusion proteins of GST and human CDK2 and of GST and human CycE, expressed in insect cells (Sf9) and purified by Glutathion-Sepharose affinity chromatography, were purchased from ProQinase GmbH (Freiburg, Germany). As substrate for the kinase reaction biotinylated peptide biotin-Ttds-YISPLKSPYKISEG (C-terminus in amid form) was used which can be purchased e.g. form the company JERINI peptide technologies (Berlin, Germany).
For the assay 50 nl of a 100fold concentrated solution of the test compound in DMSO was pipetted into a black low volume 384we11 microtiter plate (Greiner Bio-One, Frickenhausen, Germany), 2 μl of a solution of CDK2/CycE in aqueous assay buffer [50 mM Tris/HCl pH 8.0, 10 mM MgCl2, 1.0 mM dithiothreitol, 0.1 mM sodium ortho-vanadate, 0.01% (v/v) Nonidet-P40 (Sigma)] were added and the mixture was incubated for 15 min at 22° C. to allow pre-binding of the test compounds to the enzyme before the start of the kinase reaction. Then the kinase reaction was started by the addition of 3 μl of a solution of adenosine-tri-phosphate (ATP, 16.7 μM=>final conc. in the 5 μl assay volume is 10 μM) and substrate (1.25 μM=>final conc. in the 5 μl assay volume is 0.75 μM) in assay buffer and the resulting mixture was incubated for a reaction time of 25 min at 22° C. The concentration of CDK2/CycE was adjusted depending of the activity of the enzyme lot and was chosen appropriate to have the assay in the linear range, typical concentrations were in the range of 130 ng/ml. The reaction was stopped by the addition of 5 μl of a solution of TR-FRET detection reagents (0.2 μM streptavidine-XL665 [Cisbio Bioassays, Codolet, France] and 1 nM anti-RB(pSer807/pSer811)-antibody from BD Pharmingen [#558389] and 1.2 nM LANCE EU-W1024 labeled anti-mouse IgG antibody [Perkin-Elmer, product no. AD0077, as an alternative a Terbium-cryptate-labeled anti-mouse IgG antibody from Cisbio Bioassays can be used]) in an aqueous EDTA-solution (100 mM EDTA, 0.2% (w/v) bovine serum albumin in 100 mM HEPES/NaOH pH 7.0).
as §1, with “(BMG” for “or Pherastar (both from BMG”

IC50 [1] [µM]	IC50 (CDK2/CycE) [µM]	SMILES
> 20	> 20	Cc1nsc(Nc2cncc(C(F)(F)F)n2)c1C(=O)Nc1ccc(OCC2CCCN(C(=O)OC(C)(C)C)C2)nc1 (centres unmarked) [Example 166, tert-butyl 3-{[(5-{[(3-methyl-5-{[6-(trifluoromethyl)pyrazin-2-yl]amino}-1,2-thiazol-4-yl)carbonyl]amino}pyridin-2-yl)oxy]methyl}piperidine-1-carboxylate]
> 20	> 20	Cc1nsc(Nc2cnc(C(F)(F)F)cn2)c1C(=O)Nc1ccc(O[C@H]2CCN(CCC(F)(F)F)C[C@H]2F)nc1 [Example 146, N-(6-{[(3R,4S)-3-fluoro-1-(3,3,3-trifluoropropyl)piperidin-4-yl]oxy}pyridin-3-yl)-3-methyl-5-{[5-(trifluoromethyl)pyrazin-2-yl]amino}-1,2-thiazole-4-carboxamide]
≥ 20	≥ 20	Cc1nsc(Nc2cnc(C(F)(F)F)cn2)c1C(=O)Nc1ccc(OC2CCN(CC(F)F)CC2)nc1 [Example 8, N-(6-{[1-(2,2-Difluoroethyl)piperidin-4-yl]oxy}pyridin-3-yl)-3-methyl-5-{[5-(trifluoromethyl)pyrazin-2-yl]amino}-1,2-thiazole-4-carboxamide]
> 20	4.1	Cc1nsc(Nc2cncc(C(F)(F)F)n2)c1C(=O)Nc1ccc(C(=O)NCCN2CCCC(F)C2)cc1 (centres unmarked) [Example 155, N-(4-{[2-(3-fluoropiperidin-1-yl)ethyl]carbamoyl}phenyl)-3-methyl-5-{[6-(trifluoromethyl)pyrazin-2-yl]amino}-1,2-thiazole-4-carboxamide]
≥ 20	≥ 20	CC(=O)N1CCC(Oc2ccc(NC(=O)c3c(C)nsc3Nc3cnc(C(F)(F)F)cn3)cn2)CC1 [Example 11, N-{6-[(1-Acetylpiperidin-4-yl)oxy]pyridin-3-yl}-3-methyl-5-{[5-(trifluoromethyl)-pyrazin-2-yl]amino}-1,2-thiazole-4-carboxamide]
≥ 20	≥ 20	Cc1nsc(Nc2cncc(C(F)(F)F)n2)c1C(=O)Nc1ccc(OCC2CCN(C(=O)OC(C)(C)C)C2)nc1 (centres unmarked) [Example 110, tert-Butyl 3-{[(5-{[(3-methyl-5-{[6-(trifluoromethyl)pyrazin-2-yl]amino}-1,2-thiazol-4-yl)carbonyl]amino}pyridin-2-yl)oxy]methyl}pyrrolidine-1-carboxylate]
2.9	≥ 20	Cc1nsc(Nc2cnc(C(F)(F)F)cn2)c1C(=O)Nc1ccc(C(=O)O)cc1 [Example 97, 4-{[(3-Methyl-5-{[5-(trifluoromethyl)pyrazin-2-yl]amino}-1,2-thiazol-4-yl)carbony]-amino}benzoic acid]
≥ 20	≥ 20	Cc1nsc(Nc2cncc(C(F)(F)F)n2)c1C(=O)Nc1ccc(OC2CCN(C(=O)OC(C)(C)C)CC2)nc1 [Example 12, tert-Butyl 4-[(5-{[(3-methyl-5-{[6-(trifluoromethyl)pyrazin-2-yl]amino}-1,2-thiazol-4-yl)carbonyl]amino}pyridin-2-yl)oxy]piperidine-1-carboxylate]
> 20	> 20	Cc1nsc(Nc2cnc3ccccc3n2)c1C(=O)Nc1ccc(C(=O)N2CCN(CC(F)F)CC2)cc1 [Example 157, N-(4-{[4-(2,2-difluoroethyl)piperazin-1-yl]carbonyl}phenyl)-3-methyl-5-(quinoxalin-2-ylamino)-1,2-thiazole-4-carboxamide]

The next lines start with the compound.

SMILES	IC50 [1] [µM]	IC50 (CDK2/CycE) [µM]
Cc1noc(-c2cccc(NC(=O)c3c(C)nsc3Nc3cnc4ccccc4n3)c2)n1 [Example 106, 3-Methyl-N-[3-(3-methyl-1,2,4-oxadiazol-5-yl)phenyl]-5-(quinoxalin-2-ylamino)-1,2-thiazole-4-carboxamide]	≥ 20	≥ 20
Cc1nsc(Nc2cnc3ccccc3n2)c1C(=O)Nc1cccc(C(=O)N[C@@H](CCC(N)=O)C(=O)O)c1 [Example 103, N^2-[3-({[3-Methyl-5-(quinoxalin-2-ylamino)-1,2-thiazol-4-yl]carbonyl}amino)-benzoyl]glutamine]	≥ 20	≥ 20
Cc1nsc(Nc2cc(C#N)ccn2)c1C(=O)Nc1cccc(C(=O)N2CCCC2)c1 [Example 114, 5-[(4-Cyanopyridin-2-yl)amino]-3-methyl-N-[3-(pyrrolidin-1-ylcarbonyl)phenyl]-1,2-thiazole-4-carboxamide]	≥ 20	≥ 20
Cc1nsc(Nc2cnc(C(F)(F)F)cn2)c1C(=O)Nc1ccc(F)c(C(N)=O)c1 [Example 151, N-(3-carbamoyl-4-fluorophenyl)-3-methyl-5-{[5-(trifluoromethyl)pyrazin-2-yl]amino}-1,2-thiazole-4-carboxamide]	4.3	> 20
CCNS(=O)(=O)c1ccc(NC(=O)c2c(C)nsc2Nc2cnc3ccccc3n2)cc1 [Example 116, N-[4-(Ethylsulfamoyl)phenyl]-3-methyl-5-(quinoxalin-2-ylamino)-1,2-thiazole-4-carboxamide]	≥ 20	≥ 20
Cc1nsc(Nc2ccc(C#N)cn2)c1C(=O)Nc1ccc(C(=O)OC(C)(C)C)cc1 [Example 98, tert-Butyl 4-[({5-[(5-cyanopyridin-2-yl)amino]-3-methyl-1,2-thiazol-4-yl}carbonyl)-amino]benzoate]	≥ 20	≥ 20
Cc1nsc(Nc2cnc3ccccc3n2)c1C(=O)Nc1ccc(N2CCOCC2)nc1 [Example 169, 3-methyl-N-[6-(morpholin-4-yl)pyridin-3-yl]-5-(quinoxalin-2-ylamino)-1,2-thiazole-4-carboxamide]	> 20	> 20
